Source: US7045495B2 (Sloan-Kettering Institute for Cancer Research, priority 1996, dated 2006)
Like-named read-outs stand apart in the source and are kept apart here.

Tests used:
[1] = test system: MDA-MB-468 breast cancer cells; assay: apoptosis by QFM, Hoechst-33258 staining; assay type: cell-based, human; conditions: 24 hours
Protocol: PRELIMINARY STUDIES. […] Apoptosis was measured by quantitative fluorescent microscopy (QFM) of nuclear changes induced by apoptosis, as determined by bisbenzimide trihydrochloride (Hoescht-33258) staining of condensed nuclear chromatin (24). For the QFM duplicate samples of 500 cells each were counted and scored for the incidence of apoptotic chromatin condensation using an Olympus BH-2 fluorescence microscope.
Applicants also tested the PKC inhibitor UCN-01 (27) which is currently in phase I clinical trial at the NCI. In contrast to safingol, which inhibits PKC by binding to its regulatory domain, UCN-01 inhibits PKC at its catalytic domain. Therefore, assessment of the effect of UCN-01 on inducing apoptosis in combination with MMC on MDA-MB-468 was also performed. The QFM method to quantitate apoptosis was again used. The conditions tested were identical to those described above for safingol except UCN-01 (1 μM) was substituted for safingol in all the conditions.
(§1) Induction of apoptosis was estimated by counting the frequency of condensed nuclear chromatin with Hoechst-33258 stain in duplicate samples of 400 cells.

[2] = test system: SK-GT-2 cells; assay: apoptosis by QFM, Hoechst-33258 staining; assay type: cell-based, human; conditions: 24 hours; for percentage of cells undergoing apoptosis (QFM): MMC 5.0 μg/ml
Protocol: (i) Safingol enhances MMC-induced apoptosis: SK-GT-5 cells, which have a mutated p53 gene (9), were treated with safingol in the presence or absence of MMC for 24 hours. For determination of apoptosis SK-GT-5 cells were treated according to one of several conditions: (i) no drug (control) for 24 hours, (ii) Safingol alone (50 μM) for 24 hours. (This concentration represents the highest non-toxic dose of safingol for the SK-GT-5 cells, as determined by cell proliferation studies, and slightly exceeds the safingol concentration (30 μM) which inhibits PKC enzyme activity by 50% in vitro.), (iii) Mitomycin-C alone (2.5 μg/ml) for 24 hours, (iv) Mitomycin-C alone (5 μg/ml) for 24 hours, (v) the combination of safingol (50 μM) and Mitomycin-C (2.5 μg/ml) for 24 hours, (vi) the combination of safingol (50 μM) and Mitomycin-C (5 μg/ml) for 24 hours. Apoptosis was measured by quantitative fluorescent microscopy (QFM) of nuclear changes induced by apoptosis, as determined by bisbenzimide trihydrochloride (Hoescht-33258) staining of condensed nuclear chromatin (3,5). For the QFM duplicate samples of 500 cells each were counted and scored for the incidence of apoptotic chromatin condensation using an Olympus BH-2 fluorescence microscope.
(ii) UCN-01 enhances MMC-induced apoptosis: SK-GT-2 cells, which have a mutation in p53, were treated with increasing concentrations of UCN-01 in the presence or absence of a fixed dose of MMC for 24 hours.
Both UCN-01 and Flavo inhibit PKC. These drugs are cytotoxic to tumor cells and have been reported to induce apoptosis. […] In order to test this hypothesis we elected to treat gastric cancer cells, MKN-74 and SK-GT-2, as well as breast cancer cells, MDA-MB-468, with UCN-01 (7.5 to 10 μM) or Flavo (300 nM) in the presence or absence of MMC (5 μg/ml) or Taxol (50 μM) for 24 hours. Induction of apoptosis was estimated by counting the frequency of condensed nuclear chromatin with Hoechst-33258 stain in duplicate samples of 400 cells.

[3] = test system: PKC; conditions: cited from earlier work
[4] = test system: MKN-74 cells; assay: apoptosis by QFM, Hoechst-33258 staining; assay type: cell-based, human; conditions: for induction of apoptosis (condensed chromatin, 400 cells): MKN-74, UCN-01 7.5 to 10 μM; for Percent Apoptosis: 24 h continuous (single drug) or concomitant, flavopiridol 300 nM, paclitaxel 50 μM, carboplatin
Protocol: (§2) Apoptosis was measured by two different methods: (i) Quantitative fluorescent microscopy (QFM) of nuclear changes induced by apoptosis, as determined by bisbenzimide trihydrochloride (Hoescht-33258) staining of nuclear chromatin (15), and (ii) a terminal deoxynucleotidyl transferase (TdT) assay that labels the 3′-OH ends of DNA fragments produced in apoptotic cells (16). […] MMC was diluted in water. A stock safingol solution was constituted in DMSO and was subsequently diluted at least 1:100 in media for all experiments. […] For QFM determinations, the cells were fixed in 3% paraformaldehyde and incubated at room temperature for 10 minutes. The fixative was removed and the cells were washed with 1×PBS, resuspended in 20 μl 1×PBS containing only 8 μg/ml of bisbenzimide trihydrochloride (Hoechst #33258), and incubated at room temperature for 15 minutes. Aliquots of the cells (10 μl) were placed on glass slides coated with 3-amino-propyl-triethoxysilane, and duplicate samples of 500 cells each were counted and scored for the incidence of apoptotic chromatin condensation using an Olympus BH-2 fluorescence microscope equipped with a BH2-DM2U2UV Dich. Mirror Cube filter (Olympus, Lake Success, N.Y.). For the TdT assays, the ApopTag Kit (Oncor, Gaithersburg, Md.) was used. This method employs a fluoresceinated antidigoxigenin antibody directed against nucleotides of digoxigenin-11-dUTP (d-dUTP) which are catalytically added to the 3-ends fragmented DNA by TdT. Briefly, 1–2×10^6 cells were washed and fixed with 1% paraformaldehyde. The fixed cells were incubated in a reaction mixture containing TdT and d-dUTP for 30 minutes at 37° C. Stop/wash buffer was added, and the cells were resuspended in 100 μl of fluorescinated anti-digoxigenin antibody for 30 minutes at room temperature. The cells were then washed with 0.1% Triton X-100 and counterstained with propidium iodide (PI) solution. Green (d-dUTP labeled DNA strand breaks) and red (PI staining for total DNA content) fluorescence of individual cells were measured on a FACScan flow cytometer (Becton Dickinson, San Jose, Calif.). The resulting bivariate plots enabled the detection of apoptotic events within the cell cycle. The R1 cursor was set using the control specimen to define normal levels of green fluorescence (i.e., basal levels of apoptosis). Cells with fluorescence above the R, cursor were considered apoptotic. The data from 10,000 cells were collected and analyzed using CellFit and LYSYS software (Becton Dickinson).
Apoptosis was again measured by QFM staining.
as §1
For these studies apoptosis was measured by quantitative fluorescent microscopy (QFM) determination with bisbenzimide trihydrochloride stain (Hoescht-33258) for condensed nuclear chromatin characteristic of apoptotic cells.
For QFM determinations 500 cells were counted and scored for the incidence of apoptotic chromatin changes under an Olympus BH-2 fluorescence microscope in duplicate samples, ±SD, using a BH2-DM2U2UV Dich. Mirror Cube filter.
To study this further applicants elected to examine five bis-indolylmaleimides with various potencies against PKC. […] The induction of apoptosis was estimated by counting the frequency of condensed nuclear chromatin with Hoechst-33258 stain in duplicate samples of 400 cells.

[5] = test system: MKN-74; assay: cell viability, trypan blue dye exclusion; assay type: cell-based, human; conditions: 24 hours, single drug or concomitant; bryostatin 1 μM, Mitomycin-C 1 μg/ml, Taxol 50 μM, Cisplatin 50 μM
Excerpt: Recently our laboratory has studied the effects of combining bryostatin with chemotherapy both in vitro and in vivo against solid tumors. For our in vitro studies, we have been using the human gastric cancer cell line MKN-74. Cytotoxicity has been examined both by cell viability assays using trypan blue dye exclusion assays and by the induction of apoptosis using quantitative fluorescent microscopy.

[6] = test system: mammary carcinomas; assay: tumor size in mice bearing mammary carcinomas; assay type: in vivo; conditions: for increase in tumor size by day #6: bryostatin 60 μg/kg followed in 12 hours by Mitomycin-C 3 μg/kg or Taxol 50 μg/kg, preliminary
[7] = test system: esophageal carcinoma; conditions: cited from earlier work
[8] = test system: metastatic breast cancer; conditions: cited from earlier work
[9] = test system: SK-GT-5 cells; assay: apoptosis by quantitative fluorescent microscopy (QFM), Hoechst-33258 staining; assay type: cell-based, human; conditions: FIG. 4: safingol 50 μM and/or PMA 1 ng/ml for 1 hour, then MMC 5 μg/ml or no drug 24 hours; MMC alone 24 hours
Protocol: as §2
For the QFM duplicate samples of 500 cells each were counted and scored for the incidence of apoptotic chromatin condensation using an Olympus BH-2 fluorescence microscope.

Question: Which results are given for `CN[C@@H]1C[C@H]2O[C@@](C)([C@@H]1OC)n1c3ccccc3c3c4c(c5c6ccccc6n2c5c31)C(=O)N[C@H]4O` [UCN-01, 7-OH-staurosporine]?
Answer: induction of apoptosis (QFM) ([1]; FIG. 10, UCN-01 1 μM, MMC 5.0 μg/ml): 20%±4; induction of apoptosis (condensed chromatin, 400 cells) ([1]; MDA-MB-468, UCN-01 7.5 to 10 μM, MMC 5 μg/ml): 20% ± 1; percentage of cells undergoing apoptosis (QFM) ([2]; UCN-01 0.1 μM): 1%±0%; percentage of cells undergoing apoptosis (QFM) ([2]; UCN-01 1 μM): 1%±0; percentage of cells undergoing apoptosis (QFM) ([2]; UCN-01 10 μM): 21%±1%; induction of apoptosis (condensed chromatin, 400 cells) ([2]; UCN-01 7.5 to 10 μM, MMC 5 μg/ml): 18% ± 4; concentration range that inhibits PKC activity [3]: nanomolar concentrations; induction of apoptosis (condensed chromatin, 400 cells) ([4]; 24 hours, Taxol 50 μM): 10% ± 2

Question: For `CCC/C=C/C=C/C(=O)O[C@H]1/C(=C/C(=O)OC)C[C@H]2C[C@H]([C@@H](C)O)OC(=O)C[C@H](O)C[C@@H]3C[C@H](OC(C)=O)C(C)(C)[C@](O)(C[C@@H]4C/C(=C/C(=O)OC)C[C@H](/C=C/C(C)(C)[C@]1(O)O2)O4)O3` [bryostatin], which “% of Cells Alive” value [5] is on record?
Answer: Its value is 85%.

Question: What about the “increase in tumor size by day #6” value [6] of the same compound?
Answer: Its value is 80%.

Question: What about the “tumor energy and pH (NMR)” value ([6]; first noted 12 to 24 hours after bryostatin) of the same compound?
Answer: The value was “dose-dependent decrease in tumor energy and pH”.

Question: For `N.N.O=C([O-])C1(C(=O)[O-])CCC1.[Pt+2]` [carboplatin], which “Percent Apoptosis” value ([4]; MMC 1 μg/ml) is on record?
Answer: Its value is 1%±1%.

Question: What about the “Percent Apoptosis” value ([4]; MMC 1 μg/ml, listed as Carboplatin) of the same compound?
Answer: The value was 1% ± 1%.

Question: Which “% of Cells Alive” value [5] does the source give for `CC(=O)O[C@H]1C(=O)[C@@]2(C)[C@H]([C@H](OC(=O)c3ccccc3)[C@]3(O)C[C@H](OC(=O)[C@H](O)[C@@H](NC(=O)c4ccccc4)c4ccccc4)C(C)=C1C3(C)C)[C@]1(OC(C)=O)CO[C@@H]1C[C@@H]2O` [paclitaxel, Tax-11-en-9-one, 5 beta, 20-epoxy-1, 2 alpha, 4, 7 beta, 10 beta, 13 alpha-hexahydroxy-1,4, 10-diacetate, 2 benzoate 13-(alpha-phenylhippurate)] here?
Answer: Its value is 93%.

Question: What about the “increase in tumor size by day #6” value [6] of the same compound?
Answer: Its value is 22%.

Question: What about the major responses ([7]; 250 mg/m^2 by 24 hour infusion every 21 days with G-CSF, 51 patients) of the same compound?
Answer: Its major responses is 32%.

Question: And the complete response ([7]; 250 mg/m^2 by 24 hour infusion, 51 patients)?
Answer: The complete response was 2%.

Question: What about the median survival ([7]; in vivo) of the same compound?
Answer: The median survival was 13 months.

Question: What about the response rate ([8]; 96 hour infusion, taxane resistant population) of the same compound?
Answer: Its response rate is 286.

Question: What about the response rates ([8]; first chemotherapy, 24 hour infusion with or without G-CSF) of the same compound?
Answer: Its response rates is 56–62%.

Question: What about the response rate ([8]; first line, 250 mg/m^2 over 3 hour infusion) of the same compound?
Answer: The response rate was 32%.

Question: What about the “Percent Apoptosis” value ([4]; MMC 1 μg/ml) of the same compound?
Answer: The value was 5.5%±1.

Question: What about the “Percent Apoptosis” value ([4]; MMC 1 μg/ml, listed as Paclitaxel) of the same compound?
Answer: Its value is 6% ± 1%.

Question: What about the “% APOPTOSIS” value ([4]; 24 hours, FLAVO 300 nM, Taxol 50 μM, MMC 1 μg/ml, single drugs or in combination) of the same compound?
Answer: The value was 9%.

Question: What about the “percent induction of apoptosis, Concomitant” value ([4]; 24 hours, FLAVO 300 nM, Taxol 50 μM, MMC 1 μg/ml, single drugs or together) of the same compound?
Answer: The value was 9% ± 1%.

Question: And the “induction of apoptosis (condensed chromatin, 400 cells)” value ([4]; 24 hours, Taxol 50 μM)?
Answer: The value was 2% ± 1.

Question: For `CCCCCCCCCCCCCC(=O)O[C@@H]1[C@@H](C)[C@@]2(O)[C@@H](C=C(CO)C[C@]3(O)C(=O)C(C)=C[C@@H]23)[C@@H]2C(C)(C)[C@]12OC(C)=O` [PMA, 3-phorbol 12-myristate 13-acetate], which “percentage of cells undergoing apoptosis (QFM)” value [9] is on record?
Answer: Its value is “essentially no effect on inducing apoptosis”.

Question: With `CN(C)C[C@H]1CCn2c(c(C3=C(c4cn(C)c5ccccc45)C(=O)NC3=O)c3ccccc32)C1` [RO 32-0432] as the compound, how does the IC50 ([3]; Ro32-0432, read-out: IC50, PKC enzyme activity) read?
Answer: The IC50 was […].

Question: And the “percentage of cells undergoing apoptosis (QFM)” value ([4]; 24 hours, RO 32-0432 1 μM, MMC)?
Answer: The value was “essentially no effect on inducing apoptosis”.

Question: What about the “percent induction of apoptosis, 6hrs” value ([4]; Ro 2 μM, MMC 1 μg/ml) of the same compound?
Answer: The value was 0.3%.

Question: And the “percent induction of apoptosis, 12hrs” value ([4]; Ro 2 μM, MMC 1 μg/ml)?
Answer: The value was 1.5%.

Question: What about the “percent induction of apoptosis, 24hrs” value ([4]; Ro 2 μM, MMC 1 μg/ml) of the same compound?
Answer: Its value is 1.2%.

Question: And the “percent induction of apoptosis, 48hrs” value ([4]; Ro 2 μM, MMC 1 μg/ml)?
Answer: The value was 5.0%.

Question: And the “percent induction of apoptosis, 72hrs” value ([4]; Ro 2 μM, MMC 1 μg/ml)?
Answer: Its value is 13%.
